Laboratory results: patent publication US5143906A, “Kedarcidin antitumor chromophore and pharmaceutical composition containing same” (Bristol-Myers Squibb Company, priority 1991, dated 1992)
≈ marks a conversion by molar mass, not a printed value.

Columns and labels:
[1] = system: ip implanted P388 leukemia; experiment: Antitumor activity against ip implanted P388 leukemia; type: in vivo, murine (CDF1 mice)
From the text: The P388 tumor was maintained in ascitic form in DBA/2 mice. Experimental tumor models used CDF^1 mice implanted via the intraperitoneal or intravenous route with 1×10^6 leukemia cells on day 0 and dosed with drugs according to the indicated route and schedule. Mice were weighed on day 0 and on day 5 or 6. Weight loss of 20% or greater was an indicator of drug toxicity. Each dose group consisted of 6 mice with 10 mice in the untreated control group. The dosing schedule was Q1DX1;1. Death checks were performed daily and the median life span of each group determined. […] Experiments were terminated on or about day 30.

[2] = system: A2780/DDP drug resistant cell line; experiment: In vitro cytotoxicity assay (XTT), A2780/DDP; type: cell-based, human
Procedure: The A2780/DDP cell line is reported to be resistant through enhanced DNA repair mechanisms and elevated GSH/GST levels. Cells were cultured in McCoy's media and 10% fetal bovine serum. When in log phase growth, 4×10^3 cells/well were plated into 96 well microtiter plates and incubated at 37° C. in […] /5% CO2 for 24 hours to allow cell attachment. Compounds were added to the top row of wells, serially diluted (4 fold dilutions) and incubated for an additional 72 hours. The number of viable cells in each well was then quantitated as previously described^2 by adding 0.05 mg/ml final concentration tetrazolium stain (XTT) in the presence of 0.005 mM final concentration phenazine methosulfate. After incubation at room temperature for 3 hours to allow color development, optical density values were measured using a Dynatech MR600 plate reader at […]. IC50 values (drug concentration inhibiting cell growth by 50%) were calculated using linear regression analysis of the optical density readings. Triplicate determinations on separate 96 well plates were done for each drug on each cell line tested.

COc1c(OC(C)C)cc2cc(O)c(C(=O)N[C@@H]3CC(=O)OC[C@@H](O[C@H]4C[C@H](O)[C@H](N(C)C)[C@H](C)O4)/C4=C/C#C[C@@H]5O[C@]56C(=C[C@H](Oc5ccc3nc5Cl)[C@@H]6O[C@H]3C[C@@](C)(O)[C@@H](O)[C@H](C)O3)C#C4)cc2c1OC [Kedarcidin chromophore]
% T/C ([1]; Exp. 8305, 0.125 mg/kg/dose): 145% | Av. wgt. change ([1]; Exp. 8305, 0.125 mg/kg/dose): 0.1 g | Med. surv. time ([1]; Exp. 8305, 0.125 mg/kg/dose): 14.5 | No. of mice alive on d 5 ([1]; Exp. 8305, 0.125 mg/kg/dose): 6/6 | % T/C ([1]; Exp. 8305, 0.25 mg/kg/dose): 150% | Av. wgt. change ([1]; Exp. 8305, 0.25 mg/kg/dose): -0.4 g | Med. surv. time ([1]; Exp. 8305, 0.25 mg/kg/dose): 15.0 | No. of mice alive on d 5 ([1]; Exp. 8305, 0.25 mg/kg/dose): 6/6 | % T/C ([1]; Exp. 8305, 0.5 mg/kg/dose): 165% | Av. wgt. change ([1]; Exp. 8305, 0.5 mg/kg/dose): -0.5 g | Med. surv. time ([1]; Exp. 8305, 0.5 mg/kg/dose): 16.5 | No. of mice alive on d 5 ([1]; Exp. 8305, 0.5 mg/kg/dose): 6/6 | % T/C ([1]; Exp. 8305, 1 mg/kg/dose): 175% | Av. wgt. change ([1]; Exp. 8305, 1 mg/kg/dose): -0.3 g | Med. surv. time ([1]; Exp. 8305, 1 mg/kg/dose): 17.5 | No. of mice alive on d 5 ([1]; Exp. 8305, 1 mg/kg/dose): 6/6 | % T/C ([1]; Exp. 8305, 2 mg/kg/dose): 105% | Av. wgt. change ([1]; Exp. 8305, 2 mg/kg/dose): -2.2 g | Med. surv. time ([1]; Exp. 8305, 2 mg/kg/dose): 10.5 | No. of mice alive on d 5 ([1]; Exp. 8305, 2 mg/kg/dose): 6/6 | % T/C ([1]; Exp. 8305, 4 mg/kg/dose): 90% | Av. wgt. change ([1]; Exp. 8305, 4 mg/kg/dose): -3.6 g | Med. surv. time ([1]; Exp. 8305, 4 mg/kg/dose): 9.0 | No. of mice alive on d 5 ([1]; Exp. 8305, 4 mg/kg/dose): 6/6 | optimal dose ([1]; Exp. 8305, ip one day after tumor implant): 1 mg/kg/inj | % T/C ([1]; Exp. 8328, 0.25 mg/kg/dose): 185% | Av. wgt. change ([1]; Exp. 8328, 0.25 mg/kg/dose): -0.4 g | Med. surv. time ([1]; Exp. 8328, 0.25 mg/kg/dose): 18.5 | No. of mice alive on d 5 ([1]; Exp. 8328, 0.25 mg/kg/dose): 6/6 | % T/C ([1]; Exp. 8328, 0.5 mg/kg/dose): 130% | Av. wgt. change ([1]; Exp. 8328, 0.5 mg/kg/dose): -1.1 g | Med. surv. time ([1]; Exp. 8328, 0.5 mg/kg/dose): 13.0 | No. of mice alive on d 5 ([1]; Exp. 8328, 0.5 mg/kg/dose): 6/6 | % T/C ([1]; Exp. 8328, 1.0 mg/kg/dose): 90% | Av. wgt. change ([1]; Exp. 8328, 1.0 mg/kg/dose): -2.3 g | Med. surv. time ([1]; Exp. 8328, 1.0 mg/kg/dose): 9.0 | No. of mice alive on d 5 ([1]; Exp. 8328, 1.0 mg/kg/dose): 6/6 | % T/C ([1]; Exp. 8328, 2.0 mg/kg/dose): TOX | Av. wgt. change ([1]; Exp. 8328, 2.0 mg/kg/dose): -1.9 g | Med. surv. time ([1]; Exp. 8328, 2.0 mg/kg/dose): TOX | No. of mice alive on d 5 ([1]; Exp. 8328, 2.0 mg/kg/dose): 2/6 | optimal dose ([1]; Exp. 8328, ip, Q1DX1;1): 0.25 mg/kg/inj | fold less potent on the resistant cell line compared to the sensitive cell line ([2]; A2780/DDP vs A2780, 4320 min): about 6.6 fold | IC50 ([2]; A2780/DDP, 72 h, VP-16 values: mean of triplicate determinations from last 6 experiments): 1.3 ng/mL (≈ 1.26 nM)
